This is an account of results in patent publication US7345091B2, “Carotenoid ether analogs or derivatives for the inhibition and amelioration of disease” (Cardax Pharmaceuticals, Inc., priority 2002, dated 2008).

Series [1] in a line: Determination of water solubility. Type of series: physicochemical. The protocol: A total of 30 mg of sample (disodium disuccinate astaxanthin derivative, as the all-trans mixture of stereoisomers 3S,3′S, meso, and 3R,3′R in a 1:2:1 ratio) was added to 2 mL of sterile-filtered ([…] Millipore®) deionized (DI) water in a 15 mL glass centrifuge tube. The tube was wrapped in aluminum foil and the mixture was shaken for 2 hours, then centrifuged at 3500 rpm for 10 minutes. The aqueous solution was filtered through a 0.45 micron PVDF disposable filter device. A 1 mL volume of filtrate was then diluted appropriately with DI water, and the concentration of the solution was measured at 480 nm using a four point calibration curve prepared from fresh sample.

In the next series the test system is superoxide anion. Nature of the series: Superoxide anion scavenging by EPR (DEPMPO spin trap) in phorbol ester-stimulated isolated neutrophils. It counts as cell-based, human. The following applies: for Mean (% inhibition) of superoxide anion signal: 0.1 mM; for reduction of superoxide anion signal: aqueous. The protocol: In an experiment, neutrophils were isolated on a Percoll gradient from whole blood from a human volunteer. The isolated neutrophils were then re-suspended in phosphate-buffered saline, and maximally stimulated with phorbol ester to induce the respiratory burst and production of superoxide anion. To the solution of activated human neutrophils, the disodium salt disuccinate astaxanthin derivative XVI was added at various concentrations, and the superoxide signal [as measured with electron paramagnetic resonance (EPR) spectroscopy] was subsequently measured. […] The disodium salt disuccinate astaxanthin derivative XVI tested at 100 μM scavenged 28% of the total signal. At 3 mM, almost no superoxide signal remained. […] In addition to reducing the superoxide anion signal important in ischemia-reperfusion injury, it is also likely that myocardial salvage can be achieved with the described carotenoid derivative, as superoxide anion plays a major role in tissue injury and death during prolonged myocardial ischemia. In a third experiment, neutrophils were again isolated on a Percoll gradient from whole blood from a second human volunteer. The isolated neutrophils were then re-suspended in phosphate-buffered saline, and maximally stimulated with phorbol ester to induce the respiratory burst and production of superoxide anion. […] Astaxanthin 2E was dissolved in HPLC grade dimethylsulfoxide (DMSO; Sigma-Aldrich, St. Louis, Mo.). The disodium disuccinate derivatives XVI of astaxanthin 2E were tested separately in […] formulations: statistical mixture of stereoisomers (as for astaxanthin, above, a 1:2:1 mixture of all-E; labeled as “mixture” in all tables and figures); 3S,3'S, and 3R,3'R (optical isomers or enantiomers); and meso (mixture of identical 3S,3'R and 3'S,3R; diastereomers of the enantiomeric pair). […] The disuccinate derivatives were first tested at the appropriate final concentrations in pure aqueous solution (deionized water) from stock solutions of 10 mM. Each of the four disuccinate derivatives were then tested from stock solutions prepared in a 1:2 mixture of ethanol (final concentration of EtOH in stock solution 331⁄3%; final concentration in isolated neutrophil assay 0.3%; HPLC grade ethanol, Sigma-Aldrich, St. Louis, Mo.) at 10 mM. […] Metaphore® Pharmaceuticals, Inc., St. Louis, Mo.) were also performed. Human polymorphonuclear leukocytes (PMNs) were isolated from freshly sampled venous blood of a single volunteer by Percoll density gradient centrifugation, which yielded PMNs with a purity of >95%. Each 10 mL of whole blood was mixed with 0.8 mL of 0.1 M EDTA and 25 mL of saline. The diluted blood was layered over 9 mL of Percoll at a specific density of 1.080 g/mL. After centrifugation at 400×g for 20 min at 20° C., the plasma, mononuclear cell, and Percoll layers were removed. Erythrocytes were lysed by addition of 18 mL of ice-cold water for 30 s, followed by 2 mL of 10× PIPES buffer (25 mM PIPES, 110 mM NaCl, and 5 mM KCl, titrated to pH 7.4 with NaOH). Cells were pelleted at 4° C., the supernatant was decanted, and the procedure was repeated. After the second hypotonic lysis, cells were washed twice with PAG buffer (PIPES buffer containing 0.003% human serum albumin and 0.1% glucose). Afterward, PMNs were counted by light microscopy on a hemocytometer. The final pellet was then suspended in PAG-CM buffer (PAG buffer with 1 mM CaCl2 and 1 mM MgCl2). All EPR measurements were performed using a Bruker ER 300 EPR spectrometer operating at X-band with a TM110 cavity. The microwave frequency was measured with a Model 575 microwave counter (EIP Microwave, Inc., San Jose, Calif.). To measure O^ -2 generation from phorbol-ester (PMA)-stimulated PMNs, EPR spin-trapping studies were performed using DEPMPO (Oxis, Portland, Oreg.) at 10 mM. 1×10^6 PMNs were stimulated with PMA (1 ng/mL) and loaded into capillary tubes for EPR measurements. […]

The subject of a further series is Cx43 protein. Nature of the series: Cx43 protein expression by stereoisomer forms (immuno-(Western) blotting, 4 days). It counts as cell-based, mouse. The settings on record: 1×10^-5 M in 1:2 ethanol/H2O, four days; vs 1:2 ethanol/H2O alone. How it is done:
(2) Molecular Studies. […] Briefly, mouse embryonic fibroblast C3H10T1/2 cells were cultured in Eagle's basal medium with Earle's salts (Atlanta Biologicals, Atlanta, Ga.), supplemented with 5% fetal calf serum (Atlanta Biologicals, Atlanta, Ga.) and 25 μg/mL gentamicin sulfate (Sigma, St. Louis, Mo.), and incubated at 37° C. in 5% CO2. On the 7th day after seeding in 100 millimeter (mm) dishes, the confluent cells were treated for four days with the disodium salt disuccinate astaxanthin derivatives XVI and then harvested and analyzed for Cx43 protein induction as described. Protein content was measured using the Protein Assay Reagent kit (Pierce Chemical Co., Rockford, Ill.) according to manufacturer's instructions. Cell lysates containing 100 μg of protein were analyzed by Western blotting using the NuPage western blotting kit and apparatus (Invitrogen, Carlsbad, Calif.) and Cx43 protein detected using a rabbit polyclonal antibody (Zymed, San Francisco, Calif.) raised against a synthetic polypeptide corresponding to the C-terminal domain of mouse, human and rat Cx43. Cx43 immunoreactive bands were visualized by chemiluminescence using an anti-rabbit HRP-conjugated secondary antibody (Pierce Chemical Co., Rockford, Ill.). Digital images were obtained with a cooled CCD camera, and quantitative densitometry was then performed (Bio-Rad, Richmond, Calif.).

The target of series [2] is human serum albumin (HSA) (Homo sapiens, UniProt P02768).
Experimental: For spectroscopic sample preparation, HSA was dissolved in pH 7.4 Ringer or 0.1 M pH 7.4 phosphate buffer solutions. Albumin concentration was calculated with the value of E1cm^1%=5.31, using experimentally obtained absorbance data at 279 nm. The molecular weight of HSA was defined as 66500 Da.
CD and UV spectra were recorded on a Jasco J-715 spectropolarimeter at 25±0.2 and 37±0.2° C. in a rectangular cuvette with 1 cm pathlength. Temperature control was provided by a Peltier thermostat equipped with magnetic stirring. All spectra were accumulated three times with a bandwidth of 1.0 nm and a resolution of 0.5 nm at a scan speed of 100 nm/min. Induced CD was defined as the CD of the dAST XVI-HSA mixture minus the CD of HSA alone at the same wavelengths, and is expressed as ellipticity in millidegrees (mdeg).
Ringer buffer, I/P values from 0.007 to 0.10: 2 mL of 1.6×10^−4 M HSA solution was placed in the cuvette with 1 cm optical pathlength and small amounts of the ligand stock solution (c=2.2×10^−4) were added with an automatic pipette in 10 μL aliquots. Ringer buffer, L/P values from 0.82 to 13.13: 2 ml of 2.3×10^−6 M HSA solution was placed in the cuvette with 1 cm optical pathlength and μL volumes of the ligand stock solution (c=3.9×10^−4) were added with an automatic pipette. Phosphate buffer, L/P values from 0.82 to 13.10: 2 mL of 2.2×10^−6 M HSA solution was placed in the cuvette with 1 cm optical pathlength and μL volumes of the ligand stock solution (c=3.6×10^−4) were added with an automatic pipette.
2 mL of 4.2×10^−6 M HSA solution was prepared in a 1 cm rectangular cell in 0.1 M pH 7.4 phosphate buffer. […] Total fluorescence intensity was collected at each wavelength with a Hamamatsu H5784-type photomultiplier detector mounted on a right angle to the light source. […] A control experiment was also performed, in which the fluorescence of HSA during addition of 20, 50 and 100 μL DMSO to the solution was measured.
For series [3] the following is noted: for behavior as radical quencher compared with non-esterified, free astaxanthin: formation of carotenoid radical cation. An excerpt:
FIG. 27 and FIG. 28 depict the results of spectral analysis after flash photolysis of the formation of triplet and carotenoid cation radical states for non-esterified, free astaxanthin 2E and the diacid disuccinate astaxanthin derivative XV were obtained. Formation of the carotenoid cation radical is a measure of the potential biophysical behavior of the novel derivative as an antioxidant. If a derivative retains the antioxidant behavior of non-esterified, free astaxanthin, then all previously documented (i.e. literature precedent) therapeutic applications for astaxanthin can be reasonably assumed for the novel derivative, including at least singlet oxygen quenching, lipid peroxidation chain-breaking, and/or direct radical scavenging.
In this experiment, nitronaftalin (NN) was used as the photosensitizer. After irradiation, the excited sensitizer (NN*) forms a sensitizer triplet (^3NN). When ^3NN encounters a carotenoid, energy and electron transfer reactions with ^3NN take place. The resulting relatively stable ^3car and carotenoid cation radicals (car*^+) are detected by characteristic absorption bands. Non-polar solvents (e.g. hexane) favor the formation of ^3car, and more polar solvents (alcohols, water) favor the formation of the car.^+. The anion radical of the sensitizer (NN.^−) is not typically seen because of a low absorption coefficient.
The ^3car decays rather quickly. After 15 μs, half of the ^3car has disappeared, and after 50 μs, no ^3car is left.
The spectrum of asta 2E is nearly identical to that of astaCOOH XV. After 50 μs, the ^3car has disappeared. During this time frame, the car.^+ is stable. Negative and positive peaks in the absorption spectra for astaCOOH XV and asta 2E are superimposable.

Where two headings read alike, the source gives them in different places.

Chain of human serum albumin (HSA) (P02768 25-609): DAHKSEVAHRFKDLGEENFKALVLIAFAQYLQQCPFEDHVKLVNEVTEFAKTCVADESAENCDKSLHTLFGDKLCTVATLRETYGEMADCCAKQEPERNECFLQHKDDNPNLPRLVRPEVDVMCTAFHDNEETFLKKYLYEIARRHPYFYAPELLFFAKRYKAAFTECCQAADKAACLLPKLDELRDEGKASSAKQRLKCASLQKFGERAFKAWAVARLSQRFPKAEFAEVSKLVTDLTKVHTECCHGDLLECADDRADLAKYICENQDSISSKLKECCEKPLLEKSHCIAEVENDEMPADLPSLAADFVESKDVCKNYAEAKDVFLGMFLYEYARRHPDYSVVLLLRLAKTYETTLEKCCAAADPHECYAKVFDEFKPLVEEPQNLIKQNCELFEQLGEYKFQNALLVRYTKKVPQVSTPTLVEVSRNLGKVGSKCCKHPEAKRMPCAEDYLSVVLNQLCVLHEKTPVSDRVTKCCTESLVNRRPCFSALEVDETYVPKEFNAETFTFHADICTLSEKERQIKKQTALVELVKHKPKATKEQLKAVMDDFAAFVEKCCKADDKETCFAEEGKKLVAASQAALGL

Turning to `CC(C=CC=C(C)C=CC1=C(C)C(=O)C(OC(=O)CCC(=O)OCC(O)C2OC(=O)C(O)=C2O)CC1(C)C)=CC=CC=C(C)C=CC=C(C)C=CC1=C(C)C(=O)C(OC(=O)CCC(=O)OCC(O)C2OC(=O)C(O)=C2O)CC1(C)C` (stereo not drawn) [XXIII, Succinic acid 4-[18-(4-{3-[2-(3,4-dihydroxy-5-oxo-2,5-dihydrofuran-2-yl)-2-hydroxy-ethoxycarbonyl]-propionyloxy}-2,6,6-trimethyl-2-oxo-cyclohex-1-enyl)-3,7,12,16-tetramethyl-octadeca-1,3,5,7,9,11,13,15,17-nonaenyl]-3,5,5-trimethyl-2-oxo-cyclohex-3-enyl ester 2-(3,4-dihydroxy-5-oxo-2,5-dihydrofuran-2-yl)-2-hydroxy-ethyl ester], the water solubility result in series [1] is “highly water soluble”. In addition, the “increase in radical scavenging potency over the disodium disuccinate astaxanthin derivative (XVI)” value in the series on superoxide anion came to 50 fold. Further, in the series with superoxide anion (60 μM, without a co-solvent), the “inhibition of superoxide anion signal” value is “nearly complete inhibition”. In addition, the “concentration at which complete suppression of the superoxide anion signal was achieved” value with superoxide anion (activated human neutrophils, EPR) was 60 µM.

For `CC1=C(/C=C/C(C)=C/C=C/C(C)=C/C=C/C=C(C)/C=C/C=C(C)/C=C/C2=C(C)C(=O)[C@H](OC(=O)CCC(=O)[O-])CC2(C)C)C(C)(C)C[C@H](OC(=O)CCC(=O)[O-])C1=O.[Na+].[Na+]` [Meso, disodium salt disuccinate derivative XVI (dAST) of synthetic meso-astaxanthin (3R,3′S-dihydroxy-β,β-carotene-4,4′-dione)], in the series with Cx43 protein, the “expression of Cx43 protein” value was “increase expression of Cx43 protein”. The “Mean (% inhibition) of superoxide anion signal” value in the series with superoxide anion (Solvent EtOH (1:2 EtOH/water stock, 0.3% final)) is recorded as 42.5%; in the series with superoxide anion (Solvent Water), 15.7%. For the same compound, the “quenching of the intrinsic fluorescence of HSA” value in series [2] (0.1 M pH 7.4 phosphate buffer, 37° C.) is “able to effectively quench the intrinsic fluorescence of HSA”. The “decrease of baseline fluorescence intensity of HSA” value in series [2] (L/P ratio of 0.7, 0.1 M pH 7.4 phosphate buffer, 37° C.) was found to be 50%. Besides, the “mode of binding to HSA” value in series [2] (low ligand/protein molar ratios, pH 7.4 Ringer buffer) is “monomeric form”.

Regarding `CC1=C(/C=C/C(C)=C/C=C/C(C)=C/C=C/C=C(C)/C=C/C=C(C)/C=C/C2=C(C)C(=O)C(OC(=O)CCC(=O)O)CC2(C)C)C(C)(C)CC(OC(=O)CCC(=O)O)C1=O` (stereo not drawn) [XV, Succinic Acid mono-(4-{18-[4-(3-carboxy-propionyloxy)-2,6,6-trimethyl-3-oxo-cyclohex-1-enyl]-3,7,12,16-tetramethyl-octadeca-1,3,5,7,9,11,13,15,17-nonaenyl}-3,5,5-trimethyl-2-oxo-cyclohex-3-enyl) ester], the “stability of the carotenoid cation radical (car.+)” value in series [3] is listed as “stable within this time frame”. Moreover, in series [3] (acetonitrile, sensitizer NN), the “time after which half of the 3car (carotenoid triplet) has disappeared” value was 15 μs; the “time after which no 3car (carotenoid triplet) is left” value was found to be 50 μs; the “behavior as radical quencher compared with non-esterified, free astaxanthin” value is on record as “behaves like asta 2E”. Further, the “behavior as radical quencher compared with non-esterified, free astaxanthin” value in series [3] (acetonitrile, sensitizer NN, listed as astaCOOH) is “identically to non-esterified, free racemic astaxanthin”.

In general, solubility refers to the dissolved amount per volume that the medium holds. Compound `CC1=C(/C=C/C(C)=C/C=C/C(C)=C/C=C/C=C(C)/C=C/C=C(C)/C=C/C2=C(C)C(=O)C(OC(=O)C(N)CCCCN)CC2(C)C)C(C)(C)CC(OC(=O)C(N)CCCCN)C1=O.Cl.Cl.Cl` (stereo not drawn) [XX, Tetrahydrochloride Salt of the Dilysinate Ester of Astaxanthin] registered a solubility at 2 h in series [1] (deionized water, water, thermodynamic from solid, pure aqueous formulation) of more than 50 mg/mL. The “reduction of superoxide anion signal” value in the series with superoxide anion (1 μM) is given as “approximately 5%”; in the series on superoxide anion (3 mM), 98%.
